From patent publication US20250376458A1, “COMPOUNDS AND METHODS FOR YAP/TEAD MODULATION AND INDICATIONS THEREFOR” (OPNA BIO SA, priority 2023, published 2025)
Where two headings read alike, the source gives them in different places.

Tested on: TEAD-dependent transcription
Test: TEAD-dependent transcription cell-based luciferase reporter assay (MSTO-211H+12XGTIIC)
Parameters: species or system human
Settings: MSTO-211H+12XGTIIC cell line, 24 hours compound incubation, luminescence normalized to cell viability fluorescence signal, read-out: MSTO-211H GMean IC50 (uM) Cell Assay Reporter Cell Variant: TEAD
Excerpt: Determine Inhibitor Activity Against TEAD-Dependent Transcription in a Cell-Based Reporter Assay
The human mesothelioma cell line MSTO-211H was stably transfected with a pGL4.21 plasmid containing a synthetic promoter with 12 copies of the GTIIC TEAD response element that drives the expression of a luciferase reporter gene i using Lipofectamine transfection reagent (Thermo Fisher). Transfected cells were selected using puromycin and single cell clones expressing this construct (referred to as MSTO-211H+12XGTIIC) were generated by limiting dilution. MSTO-211H cells was characterized by genetic alterations in key components of the Hippo pathway^2, resulting in up-regulation of YAP/TEAD-mediated transcription. […] To evaluate TEAD inhibitors, the MSTO-211H+12XGTIIC cell line was seeded in a 96-well plate in 50 μL of culture media at 1×10^4 cells per well and incubated at 37° C. overnight. Serial dilutions of compounds (in total volume of 50 μL of culture media) were added to the cells and incubated at 37° C. for 24 hours. Each plate included cells treated with DMSO as high controls and cells treated with 20 μM of the reference compound K-975 (a known TEAD inhibitor)^3 as low controls. Cell viability was assayed by the addition of 25 μL of CellTiter-Fluor reagent (Promega) followed by a 30-minute incubation at 37° C. and quantification of the fluorescence signal (Ex400/Em505). Subsequently, luciferase expression was assayed by the addition of 25 μL of ONE-Glo reagent (Promega) followed by a 10-minute incubation at room temperature and quantification of the luminescence signal. The luminescence signal was normalized to the fluorescence signal to correct for any loss in cell viability over the 24-hour compound incubation period. The percentage of inhibition of normalized luminescence signal, indicative of compound-mediated inhibition of TEAD-dependent transcription, at individual compound concentrations relative to high and low controls was calculated. The data were analyzed by using nonlinear regression to generate IC50 values for individual compounds.

CCS(=O)(=O)c1nc(C(=O)N2CCc3c(cccc3Nc3ccc(C(F)(F)F)c(F)c3)C2)c[nH]1 [O-0025, (2-(ethylsulfonyl)-1H-imidazol-4-yl)(5-((3-fluoro-4-(trifluoromethyl)phenyl)amino)-3,4-dihydroisoquinolin-2(1H)-yl)methanone]
IC50 (Homo sapiens, MSTO-211H, 24 h): > 100 µM

Cn1cc(C(=O)N2CCc3c(cccc3Nc3ccc(C(F)(F)F)cn3)C2)nc1S(C)(=O)=O [O-0005, (1-methyl-2-(methylsulfonyl)-1H-imidazol-4-yl)(5-((5-(trifluoromethyl)pyridin-2-yl)amino)-3,4-dihydroisoquinolin-2(1H)-yl)methanone]
IC50 (Homo sapiens, MSTO-211H, 24 h): 0.001 to 10 µM

CS(=O)(=O)c1nc(C(=O)N2CCc3c(ncnc3Oc3ccc(C(F)(F)F)cc3F)C2)c[nH]1 [O-0120, (4-(2-fluoro-4-(trifluoromethyl)phenoxy)-5,8-dihydropyrido[3,4-d]pyrimidin-7(6H)-yl)(2-(methylsulfonyl)-1H-imidazol-4-yl)methanone]
IC50 (Homo sapiens, MSTO-211H, 24 h): 0.001 to 10 µM

CS(=O)(=O)c1nc(C(=O)N2CCc3c(cccc3OC3CCC(F)(F)CC3)C2)c[nH]1 [O-0112, (5-((4,4-difluorocyclohexyl)oxy)-3,4-dihydroisoquinolin-2(1H)-yl)(2-(methylsulfonyl)-1H-imidazol-4-yl)methanone]
IC50 (Homo sapiens, MSTO-211H, 24 h): 0.001 to 10 µM

CS(=O)(=O)c1nc(C(=O)N2CCc3ccc(Nc4ccc(C(F)(F)F)nc4)cc3C2)c[nH]1 [O-0016, (2-(methylsulfonyl)-1H-imidazol-4-yl)(7-((6-(trifluoromethyl)pyridin-3-yl)amino)-3,4-dihydroisoquinolin-2(1H)-yl)methanone]
IC50 (Homo sapiens, MSTO-211H, 24 h): 10 to 100 µM

CS(=O)(=O)c1nc(C(=O)N2CCc3c(cccc3Nc3ccc(C(F)(F)F)nc3)C2)c[nH]1 [O-0009, (2-(methylsulfonyl)-1H-imidazol-4-yl)(5-((6-(trifluoromethyl)pyridin-3-yl)amino)-3,4-dihydroisoquinolin-2(1H)-yl)methanone]
IC50 (Homo sapiens, MSTO-211H, 24 h): 10 to 100 µM

CS(=O)(=O)c1nc(C(=O)N2CCc3ccc(Nc4ccc(C(F)(F)F)cc4F)cc3C2)c[nH]1 [O-0017, (7-((2-fluoro-4-(trifluoromethyl)phenyl)amino)-3,4-dihydroisoquinolin-2(1H)-yl)(2-(methylsulfonyl)-1H-imidazol-4-yl)methanone]
IC50 (Homo sapiens, MSTO-211H, 24 h): 10 to 100 µM

CS(=O)(=O)c1nc(C(=O)N2CCc3c(cccc3Nc3ccc(C(F)(F)F)c(F)c3)C2)c[nH]1 [O-0004, (5-((3-fluoro-4-(trifluoromethyl)phenyl)amino)-3,4-dihydroisoquinolin-2(1H)-yl)(2-(methylsulfonyl)-1H-imidazol-4-yl)methanone]
IC50 (Homo sapiens, MSTO-211H, 24 h): 0.001 to 10 µM

CCS(=O)(=O)c1nc(C(=O)N2CCc3cc(Oc4ccc(C(F)(F)F)cc4)ccc3C2)c[nH]1 [O-0079, (2-(ethylsulfonyl)-1H-imidazol-4-yl)(6-(4-(trifluoromethyl)phenoxy)-3,4-dihydroisoquinolin-2(1H)-yl)methanone]
IC50 (Homo sapiens, MSTO-211H, 24 h): 0.001 to 10 µM

CS(=O)(=O)c1nc(C(=O)N2CCc3ccc(Nc4ccc(C(F)(F)F)cn4)cc3C2)c[nH]1 [O-0015, (2-(methylsulfonyl)-1H-imidazol-4-yl)(7-((5-(trifluoromethyl)pyridin-2-yl)amino)-3,4-dihydroisoquinolin-2(1H)-yl)methanone]
IC50 (Homo sapiens, MSTO-211H, 24 h): 10 to 100 µM

CC(C)S(=O)(=O)c1nc(C(=O)N2CCc3c(cccc3Nc3ccc(C(F)(F)F)cc3)C2)c[nH]1 [O-0022, (2-(isopropylsulfonyl)-1H-imidazol-4-yl)(5-((4-(trifluoromethyl)phenyl)amino)-3,4-dihydroisoquinolin-2(1H)-yl)methanone]
IC50 (Homo sapiens, MSTO-211H, 24 h): 0.001 to 10 µM

Cn1c(C(=O)N2CCc3c(cccc3Nc3ccc(C(F)(F)F)cc3)C2)cnc1S(C)(=O)=O [O-0008, (1-methyl-2-(methylsulfonyl)-1H-imidazol-5-yl)(5-((4-(trifluoromethyl)phenyl)amino)-3,4-dihydroisoquinolin-2(1H)-yl)methanone]
IC50 (Homo sapiens, MSTO-211H, 24 h): 0.001 to 10 µM

CCCS(=O)(=O)c1nc(C(=O)N2CCc3c(cccc3Oc3ccc(C(F)(F)F)cc3)C2)c[nH]1 [O-0019, (2-(propylsulfonyl)-1H-imidazol-4-yl)(5-(4-(trifluoromethyl)phenoxy)-3,4-dihydroisoquinolin-2(1H)-yl)methanone]
IC50 (Homo sapiens, MSTO-211H, 24 h): 0.001 to 10 µM

CC(C)S(=O)(=O)c1nc(C(=O)N2CCc3c(cccc3Oc3ccc(C(F)(F)F)cc3)C2)c[nH]1 [O-0021, (2-(isopropylsulfonyl)-1H-imidazol-4-yl)(5-(4-(trifluoromethyl)phenoxy)-3,4-dihydroisoquinolin-2(1H)-yl)methanone]
IC50 (Homo sapiens, MSTO-211H, 24 h): 0.001 to 10 µM

CCS(=O)(=O)c1nc(C(=O)N2CCc3c(ncnc3Oc3ccc(C(F)(F)F)cc3F)C2)c[nH]1 [O-0116, (2-(ethylsulfonyl)-1H-imidazol-4-yl)(4-(2-fluoro-4-(trifluoromethyl)phenoxy)-5,8-dihydropyrido[3,4-d]pyrimidin-7(6H)-yl)methanone]
IC50: 0.001 to 10 µM

CS(=O)(=O)c1nc(C(=O)N2CCc3cc(Oc4ccc(C(F)(F)F)cc4F)ccc3C2)c[nH]1 [O-0075, (6-(2-fluoro-4-(trifluoromethyl)phenoxy)-3,4-dihydroisoquinolin-2(1H)-yl)(2-(methylsulfonyl)-1H-imidazol-4-yl)methanone]
IC50 (Homo sapiens, MSTO-211H, 24 h): 0.001 to 10 µM

CS(=O)(=O)c1nc(C(=O)N2CCc3cc(Oc4ccc(C(F)(F)F)cc4)ccc3C2)c[nH]1 [O-0073, (2-(methylsulfonyl)-1H-imidazol-4-yl)(6-(4-(trifluoromethyl)phenoxy)-3,4-dihydroisoquinolin-2(1H)-yl)methanone]
IC50 (Homo sapiens, MSTO-211H, 24 h): 10 to 100 µM

CCCS(=O)(=O)c1nc(C(=O)N2CCc3c(cccc3Nc3ccc(C(F)(F)F)cc3)C2)c[nH]1 [O-0020, (2-(propylsulfonyl)-1H-imidazol-4-yl)(5-((4-(trifluoromethyl)phenyl)amino)-3,4-dihydroisoquinolin-2(1H)-yl)methanone]
IC50 (Homo sapiens, MSTO-211H, 24 h): 0.001 to 10 µM
